This is an account of results in patent US20040122033A1, “Combination therapy for the treatment of obesity” (priority 2002, published 2004).

Read-outs that look alike come from different tables or passages of the source.

In assay [1] the test system is wild type, NPY KO mice, and AGRP-NPY double KO mice. Nature of the assay: CB-1 inverse agonist - NPY knock out mouse study (overnight food intake). The assay is classed as in vivo. The settings on record: 3 mg/kg orally. The method, then:
AM25 1 was given to wild type, NPY KO Mice, and AGRP-NPY double KO mice orally at 3 mg/kg. Overnight food intake was measured.

In assay [2] the test system is wild type and MCH1R KO mice. Nature of the assay: CB-1 inverse agonist - MCH1R knock out mouse study (2 hour and overnight food intake). In kind it is in vivo. Particulars: 5 mg/kg orally. The method, then: AM251 was given to wild type and MCH1R KO mice orally at 5 mg/kg. Two hour and overnight food intake were measured.
For assay [3] the following is noted: in vivo; cited from earlier work.
Assay [4] deals with Wild type or MCH1R KO mice. Particulars: for 2 hour food intake: 1 μg MT-II icv at onset of dark cycle, vs aCSF vehicle. The method, then: Wild type or MCH1R KO mice were implanted with intracerebroventricular (icv) cannulae for icv administration of compounds. One microgram of MT-II was given by icv injection per animal at the onset of dark cycle and food intake was measured 2 hours post-injection. Overnight body weight differences were also measured. Artificial cerebrospinal fluid (aCSF) was used as a vehicle to dissolve MT-II.

For `Cc1c(C(=O)NN2CCCCC2)nn(-c2ccc(Cl)cc2Cl)c1-c1ccc(I)cc1` [AM251], the overnight food intake entry is recorded as “significantly inhibits” in assay [1] (AGRP-NPY double KO mice); “significantly inhibits” in assay [1] (NPY KO mice); “significantly inhibits” in assay [1] (wild type mice); “inhibits” in assay [2] (MCH1R KO mice, 5 mg/kg); “significantly inhibited” in assay [2] (MCH1R KO mice, listed as AM 251, 5 mg/kg); “inhibits” in assay [2] (wild type mice, 5 mg/kg). In assay [2] (wild type mice, listed as AM 251, 5 mg/kg), the overnight food intake entry is “significantly inhibited”. Further, the “2 hour food intake” value in assay [2] (MCH1R KO mice) and in assay [2] (wild type mice) was “significantly inhibited” throughout.

Turning to `CC1(C)O[C@@H]2[C@@H](CO[C@@]3(COS(N)(=O)=O)OC(C)(C)O[C@@H]23)O1` [Topiramate], the weight loss result in assay [3] is “increase weight loss”.

On to Melanotan-II [MT-II], for which the “overnight body weight compared to vehicle treated mice” value in assay [4] (MCH1R KO mice, 1 μg MT-II icv) was “reduced body weight”; in assay [4] (wild type mice, 1 μg MT-II icv) it was “reduced body weight”. The “2 hour food intake” value in assay [4] (MCH1R KO mice) and in assay [4] (wild type mice) was “significantly inhibited” throughout. In addition, the “decrease of overnight food intake” value in assay [4] (MCH-1R knock out mice, 1 μg MT-II icv, overnight) is recorded as “greater than 80%”. Besides, in assay [4] (MT-II treated MCH-1R knock out mice compared with MT-II treated wild type mice, FIG. 1), the “decrease in food intake, MCH-1R knock out mice versus wild type mice” value is listed as “significantly greater decrease in food intake”. In addition, the “overnight decrease in bodyweight, MCH-1R knock out mice versus wild type mice” value in assay [4] (MT-II treated MCH-1R knock out mice compared with MT-II treated wild type mice, FIG. 2) is listed as “greater overnight decrease in bodyweight”.
